# Results: US8247211B2, “Glycopeptide antibiotics” (American Cyanamid Company, priority 2001, dated 2012)
# Legend:
# Test in all cases: In vitro antibacterial evaluation: minimum inhibitory concentration (MIC), broth dilution method
# Assay type in all cases: cell-based
# Staphylococcus sp. = conditions: for MIC Staphylococcus aureus (ATCC 29213): strain ATCC 29213; for MIC Staphylococcus aureus (GC 1131): strain GC 1131; for MIC Staphylococcus aureus (GC 3051): strain GC 3051; for MIC Staphylococcus aureus (GC 3053): strain GC 3053; for MIC Staphylococcus aureus (GC 4541): strain GC 4541; for MIC Staphylococcus aureus (GC 4542): strain GC 4542; for MIC Staphylococcus aureus-SMITH (GC 4543): strain GC 4543; for MIC Staphylococcus aureus (GC 4544): strain GC 4544; for MIC Staphylococcus aureus (GC 4545): strain GC 4545; for MIC Coagulase Negative Staphylococcus (GC 4547): strain GC 4547; for MIC Coagulase Negative Staphylococcus (GC 4551): strain GC 4551
# In short: (§1)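 Using Muller-Hinton II […] and an inoculum of 5×10^5 CFU/mL, antibiotic dilutions from 64 down to 0.06 μg/mL were tested following NCCLS M7-A2. The MIC is the lowest concentration inhibiting growth, including in methicillin-, penicillin- or vancomycin-resistant clinical isolates.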
# Escherichia coli = conditions: 18 hours at 35° C.
# In short: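 Inoculum: 5×10^5 CFU/mL. Range: 64-0.06 μg/mL. Medium: Muller-Hinton II […]; NCCLS M7-A2 broth dilution. Endpoint: lowest concentration inhibiting growth. Strains include methicillin-, penicillin- and/or vancomycin-resistant clinical isolates.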
# Enterococcus sp. = conditions: 18 hours at 35° C.
# In short: as §1
# Streptococcus sp. = conditions: 18 hours at 35° C.
# In short: as §1
# [1] = broth dilution, 18 hours at 35° C.
# [2] = broth dilution, inoculum 5×10^5 CFU/mL
compound,measurement,setting,value
"CC(c1ccccc1)C1NC(=O)CNC(=O)C(CO)NC(=O)C(C(O)C2CNC(=N)N2C2OC(CO)C(O)C(O)C2O)NC(=O)C(C(O)C2CNC(=N)N2)NC(=O)C(Cc2ccc(OC3OC(CO)C(OC4OC5COC(Cc6ccc(Br)cc6)OC5C(O)C4O)C(O)C3O)cc2)NC1=O (stereo not drawn) [Example 118, Cyclo[glycyl-β-methylphenylalanyl-O-[4-O-[4,6-O-(4-bromophenethylidene)hexopyranosyl]-hexopyranosyl]tyrosyl-3-(2-iminoimidazolidin-4-yl)seryl-3-(3-hexopyranosyl-2-iminoimidazolidin-4-yl)serylseryl]]",MIC Staphylococcus aureus (ATCC 29213),Staphylococcus sp.,<0.5 to 1 µg/mL
same,MIC Staphylococcus aureus (ATCC 29213),Staphylococcus sp.; [1],<0.5 to 1 µg/mL
same,MIC Staphylococcus aureus (GC 1131),Staphylococcus sp.,<0.5 to 1 µg/mL
same,MIC Staphylococcus aureus (GC 1131),Staphylococcus sp.; [1],<0.5 to 1 µg/mL
same,MIC Staphylococcus aureus (GC 3051),Staphylococcus sp.,<0.5 to 1 µg/mL
same,MIC Staphylococcus aureus (GC 3051),Staphylococcus sp.; [1],<0.5 to 1 µg/mL
same,MIC Staphylococcus aureus (GC 3053),Staphylococcus sp.,1 µg/mL
same,MIC Staphylococcus aureus (GC 3053),Staphylococcus sp.; [1],1 µg/mL
same,MIC Staphylococcus aureus (GC 4541),Staphylococcus sp.,<0.5 to 1 µg/mL
same,MIC Staphylococcus aureus (GC 4541),Staphylococcus sp.; [1],<0.5 to 1 µg/mL
same,MIC Staphylococcus aureus (GC 4542),Staphylococcus sp.,<0.5 to 1 µg/mL
same,MIC Staphylococcus aureus (GC 4542),Staphylococcus sp.; [1],<0.5 to 1 µg/mL
same,MIC Staphylococcus aureus-SMITH (GC 4543),Staphylococcus sp.; 18 hours at 35° C.,<0.5 to 1 µg/mL
same,MIC Staphylococcus aureus-SMITH (GC 4543),Staphylococcus sp.; [1],<0.5 to 1 µg/mL
same,MIC Staphylococcus aureus (GC 4544),Staphylococcus sp.,<0.5 to 1 µg/mL
same,MIC Staphylococcus aureus (GC 4544),Staphylococcus sp.; [1],<0.5 to 1 µg/mL
same,MIC Staphylococcus aureus (GC 4545),Staphylococcus sp.,<0.5 to 1 µg/mL
same,MIC Staphylococcus aureus (GC 4545),Staphylococcus sp.; [1],<0.5 to 1 µg/mL
same,MIC Coagulase Negative Staphylococcus (GC 4547),Staphylococcus sp.,<0.5 to 1 µg/mL
same,MIC Coagulase Negative Staphylococcus (GC 4547),Staphylococcus sp.; [1],<0.5 to 1 µg/mL
same,MIC Coagulase Negative Staphylococcus (GC 4551),Staphylococcus sp.,<0.5 to 1 µg/mL
same,MIC Coagulase Negative Staphylococcus (GC 4551),Staphylococcus sp.; [1],<0.5 to 1 µg/mL
same,MIC Escherichia coli (GC 4559),Escherichia coli; 5×10^5 CFU/mL,16 µg/mL
same,MIC Escherichia coli (GC 4560),Escherichia coli; 5×10^5 CFU/mL,1 µg/mL
same,MIC Enterococccus avium (GC 4558),"Enterococcus sp.; broth dilution, 5×10^5 CFU/mL",1 to 2 µg/mL
same,MIC Enterococccus faecalis (ATCC 29212),"Enterococcus sp.; broth dilution, 5×10^5 CFU/mL",1 to 2 µg/mL
same,MIC Enterococccus faecalis (GC 2691),"Enterococcus sp.; broth dilution, 5×10^5 CFU/mL",1 to 2 µg/mL
same,MIC Enterococccus faecalis (GC 3059),"Enterococcus sp.; broth dilution, 5×10^5 CFU/mL",1 to 2 µg/mL
same,MIC Enterococccus faecalis (GC 4552),"Enterococcus sp.; broth dilution, 5×10^5 CFU/mL",1 to 2 µg/mL
same,MIC Enterococccus faecalis (GC 4553),"Enterococcus sp.; broth dilution, 5×10^5 CFU/mL",1 to 2 µg/mL
same,MIC Enterococccus faecalis (GC 4554),"Enterococcus sp.; broth dilution, 5×10^5 CFU/mL",1 to 2 µg/mL
same,MIC Enterococccus faecalis (GC 6189),"Enterococcus sp.; broth dilution, 5×10^5 CFU/mL",1 to 2 µg/mL
same,MIC Enterococccus faecium (GC 2243),"Enterococcus sp.; broth dilution, 5×10^5 CFU/mL",1 µg/mL
same,MIC Enterococccus faecium (GC 4556),"Enterococcus sp.; broth dilution, 5×10^5 CFU/mL",<0.5 to 1 µg/mL
same,MIC Enterococccus faecium (GC 4557),"Enterococcus sp.; broth dilution, 5×10^5 CFU/mL",<0.5 to 2 µg/mL
same,MIC Enterococcus faecalis (GC 2242),"Enterococcus sp.; broth dilution, 5×10^5 CFU/mL",<0.5 to 2 µg/mL
same,MIC Streptococcus agalactiae (GC 4564),"Streptococcus sp.; broth dilution, 5×10^5 CFU/mL",<0.06 µg/mL
same,MIC Streptococcus pneumoniae (GC 1894),"Streptococcus sp.; broth dilution, 5×10^5 CFU/mL",<0.06 µg/mL
same,MIC Streptococcus pneumoniae (GC 4565),"Streptococcus sp.; broth dilution, 5×10^5 CFU/mL",<0.06 µg/mL
same,MIC Streptococcus pneumonine (ATCC 6301),"Streptococcus sp.; broth dilution, 5×10^5 CFU/mL",<0.06 µg/mL
same,MIC Streptococcus pyogenes (GC 4563),"Streptococcus sp.; broth dilution, 5×10^5 CFU/mL",<0.06 µg/mL
"CC(c1ccccc1)C1NC(=O)CNC(=O)C(CO)NC(=O)C(C(O)C2CNC(=N)N2C2OC(CO)C(O)C(O)C2O)NC(=O)C(C(O)C2CNC(=N)N2)NC(=O)C(Cc2ccc(OC3OC(CO)C(OC4OC5COC6(OC5C(O)C4O)C4CCCC6CCC4)C(O)C3O)cc2)NC1=O (stereo not drawn) [Example 212, Cyclo[glycyl-β-methylphenylalanyl-O-[4-O-(4,6-O-bicyclo[3.3.1]non-9-ylidenehexopyranosyl]hexopyranosyl]tyrosyl-3-(2-iminoimidazolidin-4-yl)seryl-3-(3-hexopyranosyl-2-iminoimidazolidin-4-yl)serylseryl]]",MIC Staphylococcus aureus (ATCC 29213),Staphylococcus sp.,2 µg/mL
same,MIC Staphylococcus aureus (GC 1131),Staphylococcus sp.,4 µg/mL
same,MIC Staphylococcus aureus (GC 3051),Staphylococcus sp.,2 µg/mL
same,MIC Staphylococcus aureus (GC 3053),Staphylococcus sp.,4 µg/mL
same,MIC Staphylococcus aureus (GC 4541),Staphylococcus sp.,2 µg/mL
same,MIC Staphylococcus aureus (GC 4542),Staphylococcus sp.,2 µg/mL
same,MIC Staphylococcus aureus-SMITH (GC 4543),Staphylococcus sp.,2 µg/mL
same,MIC Staphylococcus aureus (GC 4544),Staphylococcus sp.,4 µg/mL
same,MIC Staphylococcus aureus (GC 4545),Staphylococcus sp.,2 µg/mL
same,MIC Staphylococcus haemolyticus (GC 4546),Staphylococcus sp.; strain GC 4546,2 µg/mL
same,MIC Coagulase Negative Staphylococcus (GC 4547),Staphylococcus sp.,2 µg/mL
same,MIC Coagulase Negative Staphylococcus (GC 4548),Staphylococcus sp.; strain GC 4548,2 µg/mL
same,MIC Coagulase Negative Staphylococcus (GC 4549),Staphylococcus sp.; strain GC 4549,2 µg/mL
same,MIC Coagulase Negative Staphylococcus (GC 4551),Staphylococcus sp.,2 µg/mL
same,MIC Coagulase Negative Staphylococcus (GC 6257),Staphylococcus sp.; strain GC 6257,1 µg/mL
same,MIC Escherichia coli (ATCC 25922),Escherichia coli; Escherichia coli (ATCC 25922),32 µg/mL
same,MIC Escherichia coli (GC 4559),Escherichia coli; Escherichia coli (GC 4559),32 µg/mL
same,MIC Escherichia coli (GC 4560),Escherichia coli; Escherichia coli (GC 4560),2 µg/mL
same,MIC Enterococcus avium (GC 4558),Enterococcus sp.; Enterococcus avium (GC 4558),4 µg/mL
same,MIC Enterococcus faecalis (ATCC 29212),Enterococcus sp.; Enterococcus faecalis (ATCC 29212),8 µg/mL
same,MIC Enterococcus faecalis (GC 2242),Enterococcus sp.; Enterococcus faecalis (GC 2242),8 µg/mL
same,MIC Enterococcus faecalis (GC 2691),Enterococcus sp.; Enterococcus faecalis (GC 2691),8 µg/mL
same,MIC Enterococcus faecalis (GC 3059),Enterococcus sp.; Enterococcus faecalis (GC 3059),8 µg/mL
same,MIC Enterococcus faecalis (GC 4552),Enterococcus sp.; Enterococcus faecalis (GC 4552),8 µg/mL
same,MIC Enterococcus faecalis (GC 4553),Enterococcus sp.; Enterococcus faecalis (GC 4553),8 µg/mL
same,MIC Enterococcus faecalis (GC 4554),Enterococcus sp.; Enterococcus faecalis (GC 4554),8 µg/mL
same,MIC Enterococcus faecalis (GC 6189),Enterococcus sp.; Enterococcus faecalis (GC 6189),8 µg/mL
same,MIC Enterococcus faecium (GC 2243),Enterococcus sp.; Enterococcus faecium (GC 2243),8 µg/mL
same,MIC Enterococcus faecium (GC 4556),Enterococcus sp.; Enterococcus faecium (GC 4556),8 µg/mL
same,MIC Enterococcus faecium (GC 4557),Enterococcus sp.; Enterococcus faecium (GC 4557),4 µg/mL
same,MIC Enterococcus avium (GC 4558),Enterococcus sp.; [2],4 µg/mL
same,MIC Enterococcus faecalis (ATCC 29212),Enterococcus sp.; [2],8 µg/mL
same,MIC Enterococcus faecalis (GC 2242),Enterococcus sp.; [2],8 µg/mL
same,MIC Enterococcus faecalis (GC 2691),Enterococcus sp.; [2],8 µg/mL
same,MIC Enterococcus faecalis (GC 3059),Enterococcus sp.; [2],8 µg/mL
same,MIC Enterococcus faecalis (GC 4552),Enterococcus sp.; [2],8 µg/mL
same,MIC Enterococcus faecalis (GC 4553),Enterococcus sp.; [2],8 µg/mL
same,MIC Enterococcus faecalis (GC 4554),Enterococcus sp.; [2],8 µg/mL
same,MIC Enterococcus faecalis (GC 6189),Enterococcus sp.; [2],8 µg/mL
same,MIC Enterococcus faecium (GC 2243),Enterococcus sp.; [2],8 µg/mL
same,MIC Enterococcus faecium (GC 4556),Enterococcus sp.; [2],8 µg/mL
same,MIC Enterococcus faecium (GC 4557),Enterococcus sp.; [2],4 µg/mL
same,MIC Streptococcus agalactiae (GC 4564),Streptococcus sp.; Streptococcus agalactiae (GC 4564),1 µg/mL
same,MIC Streptococcus pneumoniae (ATCC 6301),Streptococcus sp.; Streptococcus pneumoniae (ATCC 6301),0.5 µg/mL
same,MIC Streptococcus pneumoniae (GC 1894),Streptococcus sp.; Streptococcus pneumoniae (GC 1894),<0.06 µg/mL
same,MIC Streptococcus pneumoniae (GC 4565),Streptococcus sp.; Streptococcus pneumoniae (GC 4565),0.25 µg/mL
same,MIC Streptococcus pyogenes (GC 4563),Streptococcus sp.; Streptococcus pyogenes (GC 4563),1 µg/mL
same,MIC Streptococcus agalactiae (GC 4564),Streptococcus sp.; [2],1 µg/mL
same,MIC Streptococcus pneumoniae (ATCC 6301),Streptococcus sp.; [2],0.5 µg/mL
same,MIC Streptococcus pneumoniae (GC 1894),Streptococcus sp.; [2],<0.06 µg/mL
same,MIC Streptococcus pneumoniae (GC 4565),Streptococcus sp.; [2],0.25 µg/mL
same,MIC Streptococcus pyogenes (GC 4563),Streptococcus sp.; [2],1 µg/mL
